The values below come from paper PMC8206078, “Identification of pyrogallol as a warhead in design of covalent inhibitors for the SARS-CoV-2 3CL protease” (Nature Communications, 2021).

Experiment [1] concerns the target T1, SARS-CoV-2 3CLpro (Severe acute respiratory syndrome coronavirus 2, UniProt P0DTD1). The experiment in a line: biochemical. The experiment is classed as biochemical.
Experiment [2] has as its target T1, SARS-CoV-2 3CLpro. The note with it: read-out: KI.
Experiment [3] addresses T1, SARS-CoV-2 3CLpro.
In experiment [4] the target is SARS-CoV-2 3CLpro / HEK293T lysate (Severe acute respiratory syndrome coronavirus 2, UniProt P0DTD1). The experiment is classed as binding.
Setting [5] is: read-out: Inhibition (%) @10 μM.
[6] abbreviates: 6.25 µM, read-out: inhibition ratio (%).
The mark [7] stands for this setting: 25 µM, read-out: inhibition ratio (%).
Setting [8] is: 50 µM, read-out: inhibition ratio (%).

As usually defined, the IC50 is the point on the concentration scale where inhibition reaches its midpoint.

Where “and” joins values, the source holds several entries; their conditions need not be identical. Identical values can stand only once. Like-named read-outs stand apart in the source and are kept apart here.

As for `O=c1cc(-c2ccc(O)cc2)oc2cc(O)cc(O)c12` [Apigenin], at SARS-CoV-2 3CLpro [1] (setting [5]), the inhibition at 10 µM was -1%.

As to `COc1ccc(-c2cc(=O)c3c(O)cc(O)cc3o2)cc1O` [Diosmetin], the inhibition at 10 µM at SARS-CoV-2 3CLpro [1] (setting [5]) was 11.3%.

With `O=C1C[C@@H](c2ccc(O)c(O)c2)Oc2cc(O)cc(O)c21` [Eriodictyol], the inhibition at 10 µM at SARS-CoV-2 3CLpro [1] (setting [5]) turned out to be 34.5%.

For `COc1ccc(-c2coc3cc(O)ccc3c2=O)cc1` [Formononetin], at SARS-CoV-2 3CLpro [1] (setting [5]), the inhibition at 10 µM was found to be 16%.

`O=c1c(-c2ccc(O)cc2)coc2cc(O)cc(O)c12` [Genistein]: on SARS-CoV-2 3CLpro [1] (setting [5]), the inhibition at 10 µM was 15%.

With `O=c1c(-c2ccc(O)cc2)coc2cc(O[C@@H]3O[C@H](CO)[C@@H](O)[C@H](O)[C@H]3O)cc(O)c12` [Genistin], the inhibition at 10 µM at SARS-CoV-2 3CLpro [1] (setting [5]) is 25.5%.

On to `COc1ccc([C@@H]2CC(=O)c3c(O)cc(O)cc3O2)cc1O` [Hesperetin], for which the inhibition at 10 µM at SARS-CoV-2 3CLpro [1] (setting [5]) stood at 13.8%.

Regarding `COc1cc(-c2oc3cc(O)cc(O)c3c(=O)c2O)ccc1O` [Isorhamnetin], the inhibition at 10 µM on SARS-CoV-2 3CLpro [1] (setting [5]) is -2.6%.

Take `COc1ccc(-c2oc3cc(O)cc(O)c3c(=O)c2O)cc1` [Kaempferide]: the inhibition at 10 µM on SARS-CoV-2 3CLpro [1] (setting [5]) was determined as 8.1%.

Turning to `O=c1cc(-c2ccc(O)c(O)c2)oc2cc(O)cc(O)c12` [Luteolin], on SARS-CoV-2 3CLpro [1] (10 µM), the “Inhibition (%) @10 μM” value is given as -4.1%.

`O=c1c(O)c(-c2ccc(O)c(O)c2)oc2cc(O)cc(O)c12` [Quercetin]: at SARS-CoV-2 3CLpro [1] (setting [5]), the inhibition at 10 µM was 41.3%.

On to `O=c1c(-c2ccc(O[C@@H]3O[C@H](CO)[C@@H](O)[C@H](O)[C@H]3O)cc2)coc2cc(O)cc(O)c12` [Sophoricoside], for which the inhibition at 10 µM at SARS-CoV-2 3CLpro [1] (setting [5]) stood at 10%.

Regarding `O=C1c2c(O)cc(O)cc2OC(c2ccc(O)c(O)c2)C1O` (stereo not shown) [Taxifolin], on SARS-CoV-2 3CLpro [1] (setting [5]), the inhibition at 10 µM is 28%.

At SARS-CoV-2 3CLpro [1] (IC50 (µM)), `COc1cc(O)c2c(=O)c(O)c(-c3cc(O)c(O)c(O)c3)oc2c1` [compound 3, 7-O-methyl myricetin] came in with an IC50 of 0.31 µM. At SARS-CoV-2 3CLpro [1] (read-out: inhibition ratio (%)), the inhibition at 0.15625 µM is 28.3%, the inhibition at 0.3125 µM came out at 43.1%, the inhibition at 5 µM was determined as 96.8% and the inhibition at 10 µM was determined as 98.5%. Also, the inhibition at […] at SARS-CoV-2 3CLpro [1] (read-out: inhibition ratio (%)) was 89.4% and 96.2%.

On to `O=c1c(O)c(-c2cc(O)c(O)c(O)c2)oc2cc(OCC3CCCC3)cc(O)c12` [compound 6, 7-O-cyclopentylmethyl-myricetin], for which, on SARS-CoV-2 3CLpro [1] (read-out: IC50), the IC50 was 2.23 µM and 2.28 µM and 2.8 µM and 2.48 µM.

On to `COc1cc(O)c2c(c1)O[C@H](c1cc(O)c(O)c(O)c1)[C@@H](O)C2=O` [compound 7, 7-O-methyl dihydromyricetin], for which, at SARS-CoV-2 3CLpro [1] (IC50 (µM)), the IC50 was 270 nM (2×) and 240 nM. Further, at SARS-CoV-2 3CLpro [1] (read-out: inhibition ratio (%)), the inhibition at 0.0488281 µM was 8.15%, the inhibition at 0.0976562 µM worked out at 25.7%, the inhibition at 0.390625 µM is 54.6% and the inhibition at 0.78125 µM came out at 84.2%. Besides, on SARS-CoV-2 3CLpro [1] (read-out: inhibition ratio (%)), the inhibition at 1.5625 µM came out at 97.1%, the inhibition at 3.125 µM was found to be 94.4%, the inhibition at 6.25 µM turned out to be 98.2% and the inhibition at 25 µM was 94.6%. Moreover, at SARS-CoV-2 3CLpro [1] (read-out: inhibition ratio (%)), the inhibition at 50 µM came out at 95.6%; the inhibition at […] was 36.2% and 99.3%.

As for `O=c1c(O)c(-c2cc(O)c(O)c(O)c2)oc2cc(OP(=O)(Oc3ccccc3)Oc3ccccc3)cc(O)c12` [compound 9], the inhibition at 0.78125 µM at SARS-CoV-2 3CLpro [1] (0.78125 µM, read-out: inhibition ratio (%)) is 10.1%. Also, on SARS-CoV-2 3CLpro [1] (3.125 µM, read-out: inhibition ratio (%)), the inhibition at 3.125 µM worked out at 57.7%. Besides, the inhibition at 6.25 µM on SARS-CoV-2 3CLpro [1] (setting [6]) turned out to be 78.1%. Further, the inhibition at 25 µM on SARS-CoV-2 3CLpro [1] (setting [7]) is 96%. In addition, on SARS-CoV-2 3CLpro [1] (setting [8]), the inhibition at 50 µM was 99.4%.

For `O=C1c2c(O)cc(OP(=O)(Oc3ccccc3)Oc3ccccc3)cc2O[C@H](c2cc(O)c(O)c(O)c2)[C@H]1O` [compound 10], the inhibition at 6.25 µM at SARS-CoV-2 3CLpro [1] (setting [6]) worked out at 81.5%. For the same compound, on SARS-CoV-2 3CLpro [1] (setting [7]), the inhibition at 25 µM was 98.9%. For the same compound, the inhibition at 50 µM at SARS-CoV-2 3CLpro [1] (setting [8]) turned out to be 98.6%. The inhibition at 100 µM on SARS-CoV-2 3CLpro [1] (100 µM, read-out: inhibition ratio (%)) came to 99.4%. In addition, the inhibition at 200 µM at SARS-CoV-2 3CLpro [1] (200 µM, read-out: inhibition ratio (%)) came out at 99.6%.

For `O=C1c2c(O)cc(O)cc2O[C@H](c2cc(O)c(O)c(O)c2)[C@H]1O` [dihydromyricetin], at SARS-CoV-2 3CLpro [1] (10 µM), the “Inhibition (%) @10 μM” value is on record as above 90%. Also, the inhibition at 10 µM on SARS-CoV-2 3CLpro [1] (setting [5]) came to 93.8%. Also, at SARS-CoV-2 3CLpro [1] (read-out: inhibition ratio (%)), the inhibition at 0.3125 µM is 13%, the inhibition at 0.390625 µM was 15%, the inhibition at 0.625 µM worked out at 24.1% and the inhibition at 0.78125 µM came to 39.3%. For the same compound, on SARS-CoV-2 3CLpro [1] (read-out: inhibition ratio (%)), the inhibition at 1.5625 µM came out at 58.9%, the inhibition at 3.125 µM was found to be 82.7%, the inhibition at 5 µM was 87.5% and the inhibition at 6.25 µM turned out to be 95%. On SARS-CoV-2 3CLpro [1] (read-out: inhibition ratio (%)), the inhibition at 10 µM is 97.8%; the inhibition at 20 µM worked out at 99.5%; the inhibition at 40 µM amounted to 98.8%; the inhibition at […] is 45.2% and 85% and 98.5%.

Consider `O=c1c(O)c(-c2cc(O)c(O)c(O)c2)oc2cc(O)cc(O)c12` [myricetin, 3,5,7,3′,4′,5′-hexahydroxyflavone], for which the “Inhibition (%) @10 μM” value at SARS-CoV-2 3CLpro [1] (10 µM) is above 90%. Further, the inhibition at 10 µM on SARS-CoV-2 3CLpro [1] (setting [5]) is 97.6%. In addition, on SARS-CoV-2 3CLpro [1] (read-out: inhibition ratio (%)), the inhibition at 0.3125 µM was 27.5%, the inhibition at 0.625 µM is 44.1%, the inhibition at 5 µM was found to be 96.1% and the inhibition at 10 µM was determined as 98.2%. Also, on SARS-CoV-2 3CLpro [1] (read-out: inhibition ratio (%)), the inhibition at 20 µM amounted to 97.9%; the inhibition at 40 µM came out at 98.8%; the inhibition at […] was 65.6% and 85.5%. The KI (inactivation) on SARS-CoV-2 3CLpro [2] is 16.9 µM and 15.2 µM and 15 µM. Moreover, the “increase in molecular weight of the protease (covalent labeling)” value on SARS-CoV-2 3CLpro [3] turned out to be 316 Da. In addition, in experiment [4], the “fluorescent labeling in mixture of HEK293T lysate and recombinant 3CLpro” value was “only significantly reduced the fluorescent labeling of the protease”; the “fluorescent labeling of recombinant SARS-CoV-2 3CLpro by maleimide probe” value is “completely block”.

Consider (+)-Catechin, for which the “Inhibition (%) @10 μM” value at SARS-CoV-2 3CLpro [1] is 14.0%.

Take Biochanin A: the “Inhibition (%) @10 μM” value on SARS-CoV-2 3CLpro [1] is on record as 5.0%.
